{"source": "patent US20240041840A1", "about": "(Areteia Therapeutics, Inc., priority 2020, published 2024)", "key": {"[1]": {"test_system": "subjects with eosinophilic asthma", "method": "Pulmonary function is measured by performing a spirometry, which measures forced expiratory volume in is (FEV1), the volume of air moved in the first second of exhalation, this is a well-accepted measure of asthma. Forced vital capacity (FVC) is the total volume of air exhaled during the entire forced expiratory volume (FEV) test. The FEV1/FVC ratio is a calculated measure that may provide a more specific measure of bronchoconstriction, independent of processes such as air trapping. Pulmonary function testing can be tested pre-bronchodilator (after waiting a sufficient time so that all bronchodilator medications have cleared) or post-bronchodilator, typically 15-30 minutes after inhaling a short-acting bronchodilator, such as albuterol. Bronchodilator reversibility (BDR) is calculated and assessed by analyzing FEV1 pre- and post-bronchodilator, and calculating the change both as absolute (ml) and percentage change.\nEvaluation of Efficacy: Blood eosinophil count, changes in pulmonary function (FEV1), Asthma Control Questionnaire (ACQ-6), Asthma Control Questionnaire (ACQ-7), Asthma Quality of Life Questionnaire (AQLQ), exhaled nitric oxide, pharyngeal and nasal eosinophil peroxidase were collected periodically during the study.\nTo control the alpha level for testing 3 dose groups versus placebo for the primary endpoint and for testing FEV1, a closed hierarchical testing procedure was used in the following order: 1. First, the 300 mg/day dose group was tested versus placebo for change in blood absolute eosinophil count, and if this reached the <0.05 level then, 2. the 150 mg/day dose group was tested versus placebo at the 0.05 level for change in blood absolute eosinophil count, and if this reached the <0.05 level then, 3. the pooled 150 and 300 mg/day dose groups were tested versus placebo at the 0.05 level for change in FEV1 at Week 12, then 4. the 75 mg/day dose group was tested versus placebo at the 0.05 level for change in blood absolute eosinophil count, and if this reached the <0.05 level."}, "[2]": {"conditions": "300 mg/day, Table 6D, timepoint printed as Analysis Baseline*"}, "[3]": {"conditions": "300 mg/day, Table 6D, timepoint printed as Week 4"}, "[4]": {"conditions": "Week 4, pooled dexpramipexole arms, <50% AEC reduction at Week 12"}, "[5]": {"conditions": "Week 4, pooled dexpramipexole arms, ≥50% AEC reduction at Week 12"}, "[6]": {"conditions": "Week 8, pooled dexpramipexole arms, ≥50% AEC reduction at Week 12"}, "[7]": {"conditions": "Week 12, pooled dexpramipexole arms, <50% AEC reduction at Week 12"}, "[8]": {"conditions": "Week 12, pooled dexpramipexole arms, ≥50% AEC reduction at Week 12"}, "[9]": {"conditions": "Week 16 or Week 18, pooled dexpramipexole arms, ≥50% AEC reduction at Week 12"}, "[10]": {"conditions": "75 mg/day, Week 12, efficacy population N = 22"}, "[11]": {"conditions": "150 mg/day, Week 12, efficacy population N = 24"}, "[12]": {"conditions": "300 mg/day, Week 12, efficacy population N = 28"}}, "note": "Where two headings read alike, the source gives them in different places."}
{"smiles": "CCCN[C@@H]1CCc2nc(N)sc2C1", "note": "[dexpramipexole, (6R)-2-amino-4,5,6,7-tetrahydro-6-(propylamino) benzothiazole]", "values": [{"measurement": "ΔFEV1 vs Placebo LSM (SEM), pooled data", "setting": "[1]; 150 mg/day, Weeks 4, 8, 12, & 16/18 pooled", "value": 126, "unit": "mL"}, {"measurement": "Placebo-corrected FEV1 increase from baseline", "setting": "[1]; 300 mg/day arm, averaged Week 8 through Week 16/18", "value": "counts. In the 300 mg/day arm, placebo-corrected FEV1 increased more than 200 mL from baseline, averaged"}, {"measurement": "Pre-Bronchodilator FEV1 % change, mean", "setting": "[1]; [2]", "value": 15.5, "unit": "%"}, {"measurement": "Pre-Bronchodilator FEV1 % change, median", "setting": "[1]; [2]", "value": 10.5, "unit": "%"}, {"measurement": "Pre-Bronchodilator FEV1 change, mean", "setting": "[1]; [2]", "value": 0.277, "unit": "L"}, {"measurement": "Pre-Bronchodilator FEV1 change, median", "setting": "[1]; [2]", "value": 0.250, "unit": "L"}, {"measurement": "Pre-Bronchodilator FEV1 observed, mean", "setting": "[1]; [2]", "value": 2.32, "unit": "L"}, {"measurement": "Pre-Bronchodilator FEV1 observed, median", "setting": "[1]; [2]", "value": 2.40, "unit": "L"}, {"measurement": "Pre-Bronchodilator FEV1 % change, mean", "setting": "[1]; [3]", "value": 12.5, "unit": "%"}, {"measurement": "Pre-Bronchodilator FEV1 % change, median", "setting": "[1]; [3]", "value": 10.0, "unit": "%"}, {"measurement": "Pre-Bronchodilator FEV1 change, mean", "setting": "[1]; [3]", "value": 0.236, "unit": "L"}, {"measurement": "Pre-Bronchodilator FEV1 change, median", "setting": "[1]; [3]", "value": 0.210, "unit": "L"}, {"measurement": "Pre-Bronchodilator FEV1 observed, mean", "setting": "[1]; [3]", "value": 2.29, "unit": "L"}, {"measurement": "Pre-Bronchodilator FEV1 observed, median", "setting": "[1]; [3]", "value": 2.45, "unit": "L"}, {"measurement": "FEV1 change from Baseline LSM", "setting": "[1]; 300 mg/day, Week 4", "value": 0.0685, "unit": "L"}, {"measurement": "FEV1 difference versus Placebo LSM", "setting": "[1]; 300 mg/day, Week 4", "value": 0.0838, "unit": "L"}, {"measurement": "Pre-Bronchodilator FEV1 % change, median", "setting": "[1]; 300 mg/day, Week 4", "value": 3.95, "unit": "%"}, {"measurement": "Pre-Bronchodilator FEV1, % change from Baseline, mean", "setting": "[1]; 300 mg/day, Week 4", "value": 1.42, "unit": "%"}, {"measurement": "Pre-Bronchodilator FEV1 change, mean", "setting": "[1]; 300 mg/day, Week 4", "value": 0.0417, "unit": "L"}, {"measurement": "Pre-Bronchodilator FEV1 change, median", "setting": "[1]; 300 mg/day, Week 4", "value": 0.0700, "unit": "L"}, {"measurement": "Pre-Bronchodilator FEV1 observed, mean", "setting": "[1]; 300 mg/day, Week 4", "value": 2.14, "unit": "L"}, {"measurement": "Pre-Bronchodilator FEV1 observed, median", "setting": "[1]; 300 mg/day, Week 4", "value": 2.16, "unit": "L"}, {"measurement": "Pre-Bronchodilator Percent Predicted FEV1 % change, mean", "setting": "[1]; 300 mg/day, Week 4", "value": 1.42, "unit": "%"}, {"measurement": "Pre-Bronchodilator Percent Predicted FEV1 % change, median", "setting": "[1]; 300 mg/day, Week 4", "value": 3.94, "unit": "%"}, {"measurement": "Pre-Bronchodilator Percent Predicted FEV1 change, mean", "setting": "[1]; 300 mg/day, Week 4", "value": 0.607, "unit": "%"}, {"measurement": "Pre-Bronchodilator Percent Predicted FEV1 change, median", "setting": "[1]; 300 mg/day, Week 4", "value": 2.34, "unit": "%"}, {"measurement": "Pre-Bronchodilator Percent Predicted FEV1 observed, mean", "setting": "[1]; 300 mg/day, Week 4", "value": 62.5, "unit": "%"}, {"measurement": "Pre-Bronchodilator Percent Predicted FEV1 observed, median", "setting": "[1]; 300 mg/day, Week 4", "value": 62.3, "unit": "%"}, {"measurement": "FEV1 change from Baseline LSM", "setting": "[1]; 300 mg/day, Week 8", "value": 0.248, "unit": "L"}, {"measurement": "FEV1 difference versus Placebo LSM", "setting": "[1]; 300 mg/day, Week 8", "value": 0.254, "unit": "L"}, {"measurement": "Pre-Bronchodilator FEV1, % change from Baseline, mean", "setting": "[1]; 300 mg/day, Week 8", "value": 15.5, "unit": "%"}, {"measurement": "FEV1 change from Baseline LSM", "setting": "[1]; 300 mg/day, Week 12", "value": 0.209, "unit": "L"}, {"measurement": "FEV1 difference versus Placebo LSM", "setting": "[1]; 300 mg/day, Week 12", "value": 0.162, "unit": "L"}, {"measurement": "Pre-Bronchodilator FEV1, % change from Baseline, mean", "setting": "[1]; 300 mg/day, Week 12", "value": 12.5, "unit": "%"}, {"measurement": "FEV1 change from Baseline LSM", "setting": "[1]; 300 mg/day, Week 16 or Week 18", "value": 0.207, "unit": "L"}, {"measurement": "FEV1 difference versus Placebo LSM", "setting": "[1]; 300 mg/day, Week 16 or Week 18", "value": 0.240, "unit": "L"}, {"measurement": "Pre-Bronchodilator FEV1, % change from Baseline, mean", "setting": "[1]; 300 mg/day, Week 16 or Week 18", "value": 10.8, "unit": "%"}, {"measurement": "ΔFEV1 vs Placebo LSM (SEM), pooled data", "setting": "[1]; 300 mg/day, Weeks 4, 8, 12, & 16/18 pooled", "value": 185, "unit": "mL"}, {"measurement": "Improvement in FEV1", "setting": "[1]; 150 and 75 mg/day arms", "value": "Week 8 through Week 16/18. Substantial improvements in FEV1 were also seen in the 150 and 75 mg/day arms."}, {"measurement": "ΔFEV1 vs Placebo LSM (SEM), pooled data", "setting": "[1]; All Dex arms pooled, Week 4", "value": 138, "unit": "mL"}, {"measurement": "ΔFEV1 vs Placebo LSM (SEM), pooled data", "setting": "[1]; All Dex arms pooled, Week 8", "value": 212, "unit": "mL"}, {"measurement": "ΔFEV1 vs Placebo LSM (SEM), pooled data", "setting": "[1]; All Dex arms pooled, Week 12", "value": 99, "unit": "mL"}, {"measurement": "ΔFEV1 vs Placebo LSM (SEM), pooled data", "setting": "[1]; All Dex arms pooled, Week 16/18", "value": 233, "unit": "mL"}, {"measurement": "ΔFEV1 vs Placebo LSM (SEM), pooled data", "setting": "[1]; All Dex arms pooled, Weeks 4, 8, 12, & 16/18 pooled", "value": 173, "unit": "mL"}, {"measurement": "Magnitude and statistical significance of FEV1 improvement from baseline compared with other drugs", "setting": "[1]; Table 5, FIG. 3, FIG. 6", "value": "comparable or greater than that demonstrated in phase 2 clinical trials of benralizumab and mepolizumab"}, {"measurement": "Pre-Bronchodilator FEV1 Change from Baseline LSM", "setting": "[1]; [4]", "value": 0.0742, "unit": "L"}, {"measurement": "Pre-Bronchodilator FEV1 Difference versus Placebo LSM", "setting": "[1]; [4]", "value": 0.0859, "unit": "L"}, {"measurement": "Pre-Bronchodilator FEV1 Change from Baseline LSM", "setting": "[1]; [5]", "value": 0.163, "unit": "L"}, {"measurement": "Pre-Bronchodilator FEV1 Difference versus Placebo LSM", "setting": "[1]; [5]", "value": 0.175, "unit": "L"}, {"measurement": "Pre-Bronchodilator FEV1 Difference versus Placebo LSM", "setting": "[1]; Week 8, pooled dexpramipexole arms, <50% AEC reduction at Week 12", "value": 0.132, "unit": "L"}, {"measurement": "Pre-Bronchodilator FEV1 Change from Baseline LSM", "setting": "[1]; [6]", "value": 0.275, "unit": "L"}, {"measurement": "Pre-Bronchodilator FEV1 Difference versus Placebo LSM", "setting": "[1]; [6]", "value": 0.276, "unit": "L"}, {"measurement": "Pre-Bronchodilator FEV1 Change from Baseline LSM", "setting": "[1]; [7]", "value": 0.00797, "unit": "L"}, {"measurement": "Pre-Bronchodilator FEV1 Difference versus Placebo LSM", "setting": "[1]; [7]", "value": -0.0448, "unit": "L"}, {"measurement": "Pre-Bronchodilator FEV1 Change from Baseline LSM", "setting": "[1]; [8]", "value": 0.261, "unit": "L"}, {"measurement": "Pre-Bronchodilator FEV1 Difference versus Placebo LSM", "setting": "[1]; [8]", "value": 0.208, "unit": "L"}, {"measurement": "Pre-Bronchodilator FEV1 Difference versus Placebo LSM", "setting": "[1]; Week 16 or Week 18, pooled dexpramipexole arms, <50% AEC reduction at Week 12", "value": 0.169, "unit": "L"}, {"measurement": "Pre-Bronchodilator FEV1 Change from Baseline LSM", "setting": "[1]; [9]", "value": 0.258, "unit": "L"}, {"measurement": "Pre-Bronchodilator FEV1 Difference versus Placebo LSM", "setting": "[1]; [9]", "value": 0.287, "unit": "L"}, {"measurement": "FEV1 in hematologic responders", "setting": "[1]; all post-baseline time points (Table 12, FIG. 5)", "value": "significant increase"}, {"measurement": "Subjects with AEC ≤50 cells/pL, %", "setting": "blood eosinophils; [10]", "value": "(22.7%)"}, {"measurement": "Subjects with AEC ≥50% reduction from Baseline to Week 12, %", "setting": "blood eosinophils; [10]", "value": "(50.07%)"}, {"measurement": "Subjects with AEC ≤50 cells/pL, %", "setting": "blood eosinophils; [11]", "value": "(37.5%)"}, {"measurement": "Subjects with AEC ≥50% reduction from Baseline to Week 12, %", "setting": "blood eosinophils; [11]", "value": "(62.5%)"}, {"measurement": "Subjects with AEC ≤50 cells/pL, %", "setting": "blood eosinophils; [12]", "value": "(42.9%)"}, {"measurement": "Subjects with AEC ≥50% reduction from Baseline to Week 12, %", "setting": "blood eosinophils; [12]", "value": "(57.1%)"}, {"measurement": "Reduction in AEC", "setting": "blood eosinophils; Week 12 compared with baseline, up to 300 mg/day", "value": "≤ 80", "unit": "%"}, {"measurement": "Dexpramipexole treated subjects with a greater than or equal to 50% reduction in AEC", "setting": "blood eosinophils; all dose groups", "value": "approximately 60%"}, {"measurement": "Number of hematologic responders compared with placebo", "setting": "blood eosinophils; blood eosinophil count of ≤50 cells/μL at week 12, dose-dependent", "value": "significantly increased"}]}
